Here are results for one compound from US9050341B2, “Methods of treating drug resistant and other tumors by administering 6,7-dialkoxy quinazoline derivatives” (NATCO PHARMA LIMITED, priority 2009, dated 2015).

What all share (assay): KinomeScan kinase profiling
Common to all, as to format: binding

Experiment [1] addresses T1, TRKC (Homo sapiens, UniProt Q16288).
T1 construct: purchased Ambit Biosciences Corp (KinomeScan); host or cells: E. coli host derived from the BL21 strain (T7 phage lysate)
An excerpt: (§1) The kinases were ABL1(F317L), ABL1(H396P), ABL1(Q252H), ABL1(Y253F), ADCK3, ADCK4, ALK, ARK5, AXL, BLK, BRSK2, CDK7, CIT, CLK4, CSNK1D, CSNK1E, DAPK1, DAPK3, DCAMKL3, DMPK, EGFR, EGFR(E746-A750DEL), EGFR(G719C), EGFR(G719S), EGFR(L747-E749DEL, A750P), EGFR(L747-S752 DEL, P753S), EGFR(L747-T751DEL, Sin), EGFR(L858R), EGFR(L861Q), EGFR(S752-I759DEL), EPHA5, EPHA6, ERBB2, ERBB4, ERK3, ERK4, FGR, FLT3(D835H), FLT3(D835Y), FLT3(ITD), FLT3(N841 I), FRK, GAK, GCN2(KIN.DOM.2, S808G), HCK, IRAK3, JAK1(KIN.DOM.1), KIT, KIT(D816V), KIT(V559D), KIT(V559D,T670I), LCK, LOK, LTK, LYN, MAP3K3, MAP4K4, MAP4K5, MET, MINK, MKNK1, MKNK2, MST4, MYLK2, PDGFRB, PIM3, PKN2, PRKD1, PRKD2, PRKD3, PRKG1, RIPK2, RPS6KA4(KIN.DOM.2), SIK2, SLK, SNARK, SRC, STK36, TNIK, TNNI3K, TYK2(KIN.DOM.2).
(§2) Kinase assays: Assays were performed as described in Fabian et al. (2005) Nature Biotechnology, vol. 23, p. 329. Kinase-tagged T7 phage strains were grown in parallel in 24 or 96-well blocks in an E. coli host derived from the BL21 strain. E. coli were grown to log-phase and infected with T7 phage from a frozen stock (multiplicity of infection ˜0.1) and incubated with shaking at 32° C. until lysis (˜90 minutes). The lysates were centrifuged and filtered to remove cell debris. […] The liganded beads were blocked with excess biotin and washed with blocking buffer (SeaBlock (Pierce), 1% BSA, 0.05% Tween 20, 1 mM DTT) to remove unbound ligand and to reduce non-specific phage binding.
(§3) Test compounds were prepared as 40× stocks in DMSO and diluted into the aqueous environment. 2.5% DMSO was added to control assays lacking a test compound. All reactions were performed in polystyrene 96-well plates that had been pretreated with blocking buffer in a final volume of 0.04 ml. […] The phage titer in the eluates was measured by quantitative PCR.

Experiment [2] has as its target T2, EGFR (Homo sapiens, UniProt P00533).
T2 construct: purchased Ambit Biosciences Corp (KinomeScan); host or cells: T7 phage in E. coli host derived from BL21
Excerpt: as §1, §2, §3

Experiment [3] addresses T3, RPS6KA4 (Kin.Dom.-2-C-terminal) (Homo sapiens, UniProt O75676).
T3 construct: RPS6KA4(KIN.DOM.2); host or cells: E. coli host derived from BL21, T7 phage lysate
Excerpt: as §1, §2, §3

In experiment [4] the target is T4, PRKR (Homo sapiens, UniProt P19525).
T4 construct: purchased Ambit Biosciences Corp (KinomeScan); host or cells: E. coli host derived from BL21, infected with T7 phage
T4 sequence (P19525 whole entry): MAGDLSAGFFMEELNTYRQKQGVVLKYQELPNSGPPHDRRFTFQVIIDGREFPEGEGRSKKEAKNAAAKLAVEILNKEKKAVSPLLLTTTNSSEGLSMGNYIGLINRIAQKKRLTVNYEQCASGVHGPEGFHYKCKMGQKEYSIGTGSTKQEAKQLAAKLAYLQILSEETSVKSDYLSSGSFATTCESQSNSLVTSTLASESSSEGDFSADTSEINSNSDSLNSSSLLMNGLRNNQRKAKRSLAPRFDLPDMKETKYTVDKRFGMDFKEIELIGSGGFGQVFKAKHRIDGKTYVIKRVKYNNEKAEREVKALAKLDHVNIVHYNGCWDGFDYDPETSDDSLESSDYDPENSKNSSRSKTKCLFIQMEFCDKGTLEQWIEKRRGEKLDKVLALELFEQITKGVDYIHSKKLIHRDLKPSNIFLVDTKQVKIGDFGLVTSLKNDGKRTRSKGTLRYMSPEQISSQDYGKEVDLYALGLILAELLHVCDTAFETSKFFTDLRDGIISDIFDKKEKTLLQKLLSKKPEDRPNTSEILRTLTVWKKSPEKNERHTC
Excerpt: as §1, §2, §3

In experiment [5] the target is T5, ERBB4 (Homo sapiens, UniProt Q15303).
T5 construct: host or cells: E. coli host derived from BL21, T7 phage lysate
Excerpt: as §1, §2, §3

The target in experiment [6] is T6, FLT4 (Homo sapiens, UniProt P35916).
T6 construct: host or cells: E. coli host derived from BL21, infected with T7 phage
Excerpt: as §1, §2, §3

The target of experiment [7] is T7, JAK2 (JH1domain-catalytic) (Homo sapiens, UniProt O60674).
T7 construct: JAK2 (JH1domain-catalytic); host or cells: T7 phage in E. coli host derived from BL21
T7 sequence (O60674 849-1124 limits assumed): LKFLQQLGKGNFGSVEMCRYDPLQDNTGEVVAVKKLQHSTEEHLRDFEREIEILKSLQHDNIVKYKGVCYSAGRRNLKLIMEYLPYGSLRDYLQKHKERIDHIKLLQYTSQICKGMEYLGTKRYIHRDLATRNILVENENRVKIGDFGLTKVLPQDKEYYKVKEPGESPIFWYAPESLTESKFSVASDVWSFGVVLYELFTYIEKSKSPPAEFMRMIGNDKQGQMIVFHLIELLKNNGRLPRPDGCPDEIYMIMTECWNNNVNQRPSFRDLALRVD
Excerpt: as §1, §2, §3

The target in experiment [8] is T8, ARK5 (Homo sapiens, UniProt O60285).
T8 construct: purchased Ambit Biosciences Corp (KinomeScan); host or cells: E. coli host derived from the BL21 strain, T7 phage
Excerpt: as §1, §2, §3

The target of experiment [9] is T9, DRAK2 (Homo sapiens, UniProt O94768).
T9 construct: purchased Ambit Biosciences Corp (KinomeScan); host or cells: T7 phage in E. coli host derived from BL21
Excerpt: as §1, §2, §3

Experiment [10] has as its target T10, PIK3CA (E545K) (Homo sapiens, UniProt P42336, E545K).
T10 construct: host or cells: E. coli host derived from the BL21 strain, infected with T7 phage
Excerpt: as §1, §2, §3

The target of experiment [11] is T11, ALK (Homo sapiens, UniProt Q9UM73).
T11 construct: host or cells: E. coli host derived from BL21 (T7 phage lysate)
Excerpt: as §1, §2, §3

In experiment [12] the target is T12, MST2 (Homo sapiens, UniProt Q13188).
T12 construct: host or cells: T7 phage in E. coli host derived from BL21
T12 sequence (Q13188 whole entry): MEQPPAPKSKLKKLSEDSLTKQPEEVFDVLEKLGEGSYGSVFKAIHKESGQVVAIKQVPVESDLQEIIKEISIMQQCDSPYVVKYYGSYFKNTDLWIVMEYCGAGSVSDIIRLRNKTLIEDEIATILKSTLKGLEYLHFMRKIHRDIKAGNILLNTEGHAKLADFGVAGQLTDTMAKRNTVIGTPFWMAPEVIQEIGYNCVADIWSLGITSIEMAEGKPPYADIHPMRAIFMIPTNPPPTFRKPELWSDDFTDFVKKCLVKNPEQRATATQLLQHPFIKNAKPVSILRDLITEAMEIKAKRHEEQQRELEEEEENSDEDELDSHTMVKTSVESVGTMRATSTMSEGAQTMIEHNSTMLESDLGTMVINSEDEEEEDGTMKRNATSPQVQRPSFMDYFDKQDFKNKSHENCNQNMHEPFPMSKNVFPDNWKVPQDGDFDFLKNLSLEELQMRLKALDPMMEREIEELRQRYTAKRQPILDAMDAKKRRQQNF
Excerpt: as §1, §2, §3

The target in experiment [13] is T13, AKT3 (Homo sapiens, UniProt Q9Y243).
T13 construct: host or cells: E. coli host derived from BL21 (T7 phage lysate)
T13 sequence (Q9Y243 whole entry): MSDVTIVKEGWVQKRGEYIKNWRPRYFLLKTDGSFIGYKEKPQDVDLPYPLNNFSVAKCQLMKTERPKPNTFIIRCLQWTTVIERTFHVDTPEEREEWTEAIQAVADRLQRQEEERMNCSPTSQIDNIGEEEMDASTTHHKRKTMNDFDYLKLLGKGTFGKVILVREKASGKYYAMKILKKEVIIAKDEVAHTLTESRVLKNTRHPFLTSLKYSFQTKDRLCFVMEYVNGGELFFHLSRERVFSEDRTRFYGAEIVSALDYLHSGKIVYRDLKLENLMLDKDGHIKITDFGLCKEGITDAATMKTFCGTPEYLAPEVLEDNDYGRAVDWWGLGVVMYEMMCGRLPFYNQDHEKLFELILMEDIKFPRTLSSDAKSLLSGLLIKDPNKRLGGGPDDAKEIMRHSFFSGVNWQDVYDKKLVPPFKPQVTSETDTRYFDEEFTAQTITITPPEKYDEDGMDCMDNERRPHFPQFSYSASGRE
Excerpt: as §1, §2, §3

In experiment [14] the target is T14, MARK4 (Homo sapiens, UniProt Q96L34).
T14 construct: host or cells: E. coli derived from BL21, infected with T7 phage
T14 sequence (Q96L34 whole entry): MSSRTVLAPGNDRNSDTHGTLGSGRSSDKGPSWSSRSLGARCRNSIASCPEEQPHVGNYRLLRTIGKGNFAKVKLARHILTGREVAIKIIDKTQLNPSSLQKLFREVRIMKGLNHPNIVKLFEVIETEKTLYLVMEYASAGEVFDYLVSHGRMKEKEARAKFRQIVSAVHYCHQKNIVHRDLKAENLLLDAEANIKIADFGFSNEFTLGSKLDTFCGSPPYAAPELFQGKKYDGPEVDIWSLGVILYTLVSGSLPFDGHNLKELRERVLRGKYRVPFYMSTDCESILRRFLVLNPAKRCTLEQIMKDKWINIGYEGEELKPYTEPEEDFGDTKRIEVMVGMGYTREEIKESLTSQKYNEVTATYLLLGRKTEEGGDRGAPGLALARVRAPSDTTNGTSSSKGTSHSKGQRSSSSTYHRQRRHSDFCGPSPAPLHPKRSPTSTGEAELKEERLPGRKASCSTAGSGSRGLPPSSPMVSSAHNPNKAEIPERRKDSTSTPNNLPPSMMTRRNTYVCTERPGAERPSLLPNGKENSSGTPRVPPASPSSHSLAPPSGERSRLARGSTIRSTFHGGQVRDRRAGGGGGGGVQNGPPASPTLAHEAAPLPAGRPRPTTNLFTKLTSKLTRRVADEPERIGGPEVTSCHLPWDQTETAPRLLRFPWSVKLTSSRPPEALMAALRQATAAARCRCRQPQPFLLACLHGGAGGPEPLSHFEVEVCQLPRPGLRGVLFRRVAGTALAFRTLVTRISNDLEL
Excerpt: as §1, §2, §3

The target in experiment [15] is T15, EPHB1 (Homo sapiens, UniProt P54762).
T15 construct: host or cells: E. coli host derived from BL21, T7 phage lysate
Excerpt: as §1, §2, §3

For experiment [16], the target named is T16, KIT (Homo sapiens, UniProt P10721).
T16 construct: host or cells: T7 phage in E. coli host derived from BL21
T16 sequence (P10721 26-976): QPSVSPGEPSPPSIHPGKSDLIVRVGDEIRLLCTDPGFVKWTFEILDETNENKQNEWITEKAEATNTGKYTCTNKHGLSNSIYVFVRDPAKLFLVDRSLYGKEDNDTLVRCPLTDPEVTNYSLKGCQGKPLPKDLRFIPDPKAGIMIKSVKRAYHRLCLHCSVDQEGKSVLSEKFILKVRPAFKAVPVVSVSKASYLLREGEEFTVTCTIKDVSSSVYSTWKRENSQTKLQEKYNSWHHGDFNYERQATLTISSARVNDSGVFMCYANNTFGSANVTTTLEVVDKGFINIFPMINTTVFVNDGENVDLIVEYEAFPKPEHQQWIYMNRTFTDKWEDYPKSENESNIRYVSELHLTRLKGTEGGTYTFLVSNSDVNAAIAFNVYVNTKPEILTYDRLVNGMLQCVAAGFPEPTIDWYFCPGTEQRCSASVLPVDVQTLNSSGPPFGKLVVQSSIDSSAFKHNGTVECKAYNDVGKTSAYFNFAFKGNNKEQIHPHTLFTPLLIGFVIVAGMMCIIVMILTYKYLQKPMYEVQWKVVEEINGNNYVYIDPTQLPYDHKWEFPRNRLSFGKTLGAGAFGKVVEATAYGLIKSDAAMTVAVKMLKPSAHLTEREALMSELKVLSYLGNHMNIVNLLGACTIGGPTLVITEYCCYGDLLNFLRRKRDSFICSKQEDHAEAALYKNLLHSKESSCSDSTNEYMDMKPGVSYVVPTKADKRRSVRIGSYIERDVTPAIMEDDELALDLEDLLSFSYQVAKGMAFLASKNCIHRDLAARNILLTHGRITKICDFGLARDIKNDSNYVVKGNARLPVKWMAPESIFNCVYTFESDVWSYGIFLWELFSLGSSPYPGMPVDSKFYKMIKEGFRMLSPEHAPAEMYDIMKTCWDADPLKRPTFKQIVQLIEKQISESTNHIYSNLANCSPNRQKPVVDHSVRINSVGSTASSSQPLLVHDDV
Excerpt: as §1, §2, §3

In experiment [17] the target is T17, FER (Homo sapiens, UniProt P16591).
T17 construct: host or cells: E. coli host derived from BL21, infected with T7 phage
Excerpt: as §1, §2, §3

Experiment [18] addresses T18, SYK (Homo sapiens, UniProt P43405).
T18 construct: host or cells: E. coli host derived from the BL21 strain, T7 phage lysate
Excerpt: as §1, §2, §3

The target of experiment [19] is T19, ACVR2B (Homo sapiens, UniProt Q13705).
T19 construct: host or cells: E. coli host derived from BL21 (T7 phage lysate)
Excerpt: as §1, §2, §3

The target of experiment [20] is T20, FRK (Homo sapiens, UniProt P42685).
T20 construct: host or cells: E. coli host derived from BL21, infected with T7 phage
Excerpt: as §1, §2, §3

For experiment [21], the target named is T21, RPS6KA5 (Kin.Dom.-2-C-terminal) (Homo sapiens, UniProt O75582).
T21 construct: RPS6KA5 (Kin.Dom.-2-C-terminal); host or cells: E. coli host derived from BL21, T7 phage lysate
T21 sequence (O75582 426-687 limits assumed): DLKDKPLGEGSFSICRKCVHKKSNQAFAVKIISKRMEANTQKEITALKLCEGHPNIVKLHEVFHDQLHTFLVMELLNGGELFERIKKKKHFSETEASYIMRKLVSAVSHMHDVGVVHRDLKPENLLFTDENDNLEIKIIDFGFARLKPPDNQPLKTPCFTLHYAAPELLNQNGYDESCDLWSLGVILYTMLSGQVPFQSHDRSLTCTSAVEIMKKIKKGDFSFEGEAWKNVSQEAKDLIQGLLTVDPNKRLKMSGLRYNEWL
Excerpt: as §1, §2, §3

T1 sequence (Q16288 32-839): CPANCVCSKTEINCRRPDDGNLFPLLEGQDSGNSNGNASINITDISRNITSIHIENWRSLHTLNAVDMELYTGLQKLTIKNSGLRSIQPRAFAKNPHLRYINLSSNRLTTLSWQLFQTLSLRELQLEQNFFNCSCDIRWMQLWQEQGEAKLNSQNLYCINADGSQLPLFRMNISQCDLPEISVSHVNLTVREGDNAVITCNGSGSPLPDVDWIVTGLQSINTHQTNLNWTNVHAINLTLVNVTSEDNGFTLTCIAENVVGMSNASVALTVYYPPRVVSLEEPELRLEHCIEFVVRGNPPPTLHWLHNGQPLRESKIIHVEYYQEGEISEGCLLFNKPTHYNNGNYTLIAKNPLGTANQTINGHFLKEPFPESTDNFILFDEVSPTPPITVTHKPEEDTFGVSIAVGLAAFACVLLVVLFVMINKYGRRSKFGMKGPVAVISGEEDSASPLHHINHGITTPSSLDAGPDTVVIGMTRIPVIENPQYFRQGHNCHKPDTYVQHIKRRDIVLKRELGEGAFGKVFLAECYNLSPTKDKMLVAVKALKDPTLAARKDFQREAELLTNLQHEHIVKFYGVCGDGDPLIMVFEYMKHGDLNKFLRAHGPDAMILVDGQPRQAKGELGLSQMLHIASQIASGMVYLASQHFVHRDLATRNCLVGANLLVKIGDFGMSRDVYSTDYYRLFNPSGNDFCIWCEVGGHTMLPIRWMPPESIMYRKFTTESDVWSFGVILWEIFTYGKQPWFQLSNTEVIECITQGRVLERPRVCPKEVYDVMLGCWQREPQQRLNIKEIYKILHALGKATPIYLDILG
T3 sequence (O75676 411-674 limits assumed): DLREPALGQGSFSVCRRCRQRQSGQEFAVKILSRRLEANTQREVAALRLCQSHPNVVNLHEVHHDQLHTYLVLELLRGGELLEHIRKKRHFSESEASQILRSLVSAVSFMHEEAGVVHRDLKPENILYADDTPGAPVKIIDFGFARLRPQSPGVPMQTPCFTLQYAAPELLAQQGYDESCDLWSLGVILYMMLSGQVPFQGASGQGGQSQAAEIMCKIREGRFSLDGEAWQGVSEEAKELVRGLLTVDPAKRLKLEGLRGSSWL

For `C#Cc1cccc(Nc2ncnc3cc(OC)c(OCCCN4CCOCC4)cc23)c1` [NRC-2694, N-(3-ethylnylphenyl)-7-methoxy-6-[3-(4-morpholinyl)propoxy]-4-quinazolinamine], the “% Ctrl @ 10000 nM” value is 80 % Ctrl in experiment [1]; 0 % Ctrl in experiment [2]; 8.9 % Ctrl in experiment [3]; 51 % Ctrl in experiment [4]; 3.3 % Ctrl in experiment [5]; 66 % Ctrl in [6]. The “% Ctrl @ 10000 nM” value in experiment [7] is 38 % Ctrl; in experiment [8], 29 % Ctrl; in experiment [9] it was 58 % Ctrl; in [10], 100 % Ctrl; in [11] it was 10 % Ctrl; in [12], 85 % Ctrl. Further, the “% Ctrl @ 10000 nM” value in experiment [13] was determined as 66 % Ctrl; in experiment [14] it was 100 % Ctrl; in [15], 72 % Ctrl; in [16] it was 26 % Ctrl; in experiment [17], 94 % Ctrl; in experiment [18] it was 56 % Ctrl. For the same compound, the figures for the “% Ctrl @ 10000 nM” value in [19], in experiment [20] and in [21] were 63 % Ctrl, 10 % Ctrl and 57 % Ctrl, respectively.
